Laboratory results taken from patent US4876284A, “1-alkyl-2-aminotetralin derivatives” (Per Arvid Emil Carlsson, priority 1981, dated 1989).

How the values were obtained:
[1] = system: autoreceptor; details: low doses; cited from earlier work
[2] = system: central DA-receptor (pre- and/or postsynaptic); details: reserpine-pretreated rats, s.c., cited from earlier work
[3] = system: DA autoreceptors; experiment: Spontaneous locomotor activity in non-pretreated rats; assay type: in vivo, rat; details: non-pretreated rats
Procedure: Untreated animals exposed to a new environment display an initial high motor activity which then gradually declines over a period of time. Administration of DA-receptor agonists (e.g. apomorphine) in doses where preferential autoreceptor stimulation is likely to occur, causes a depression of the spontaneous motility mentioned above, considered to be due to the DA autoreceptor-medicated attenuation of central DA transmission.
Rats (150-300 g) were injected subcutaneously with compound 2,5-OH-DPAT or apomorphine and after 5 minutes they were individually placed in motility boxes ("M/P 40 Fc Electronic Motility Meter". Motron Products, Stockholm) and the motor activity (0-30 min) was quantified. […] These findings are in congruence with the results obtained with the selective DA-autoreceptor agonist 3-PPP [S. Hjorth t al., Life Sciences, 28, 1225 (1981)] but in sharp contrast to the results obtained with 5-OH-DPAT and apomorphine (Table III).
Non-pretreated rats were given compound -2 (0.0625-16.0 mg/kg),
5OH--2-(di-n-propylamino) tetralin (5OH--DPAT; 0.0125-0.05 mg/kg,
apomorphine (0.1-1.0 mg/kg) or saline subcutaneously. Five minutes later
they were placed individually into motility meters and the locomotor

[4] = system: postsynaptic DA receptors; experiment: Antagonism of the reserpine plus α-methyl-para-tyrosine-induced immobility (neuroleptic syndrome) in rats; motor activity
[5] = in vivo; cited from earlier work

SMILES: CN1CCc2cccc3c2[C@H]1Cc1ccc(O)c(O)c1-3 [Apomorphine]
- effects demonstrated in man [1]: "paradoxical" antipsychotic and antidyskinetic effects
- Dopa-accumulation; ED50, Limbic (taken from Hacksell et al., J. Med. Chem. 22, 1469 (1979)) ([2]; limbic forebrain): 0.19 μmol/kg s.c.
- Dopa-accumulation; ED50, Striatum (taken from Hacksell et al., J. Med. Chem. 22, 1469 (1979)) ([2]; striatum): 0.22 μmol/kg s.c.
- Locomotor activity ([3]; 0.1 mg/kg s.c.): 134 ± 9 counts 0.30 min
- Locomotor activity ([3]; 1.0 mg/kg s.c.): 439 ± 67 counts 0.30 min
- effect on locomotor activity, in words ([3]; s.c.): lower doses significantly suppressing and higher dosess significantly stimulating the rat locomotor activity
- Motor activity ([4]; 1 mg/kg s.c., reserpine 10 mg/kg + α-methyl-para-tyrosine 250 mg/kg i.p., means ± s.e.m.): 517 ± 56 counts 0-60 min
- motor response / postsynaptic DA-receptor stimulatory effects ([4]; comparative study, Table II, s.c.): strong central postsynaptic DA-receptor stimulatory effects
- antagonism of the reserpine-induced syndrome / behaviour elicited ([4]; reserpine and α-methyl-para-tyrosine pretreated rats): pronounced stereotyped and hyperactive behaviour

SMILES: CN(C)C1CCc2ccc(O)cc2C1(C)C (stereo not shown) [1,1-Dimethyl-2-(N,N-dimethylamino)-7-hydroxytetralin]
- actions stated in CA 79: 146294b [5]: analgesic and intestinal movement accelerating actions
